Legend:
[1] = target: T1, hSOS1 (hSOS1-mediated nucleotide exchange of hK-RasG12C) (Homo sapiens, UniProt Q07889); experiment: Biochemical Assay 2: hK-RasG12C activation assay by hSOS1 at high GTP concentration (HTRF nucleotide exchange); details: high GTP (50 μM GTP)
T1 construct: hSOS1 (amino acid 564-1049); made in house; host or cells: E. coli BL21 (DE3)
T1 sequence (Q07889 with tags, fused parts or gaps): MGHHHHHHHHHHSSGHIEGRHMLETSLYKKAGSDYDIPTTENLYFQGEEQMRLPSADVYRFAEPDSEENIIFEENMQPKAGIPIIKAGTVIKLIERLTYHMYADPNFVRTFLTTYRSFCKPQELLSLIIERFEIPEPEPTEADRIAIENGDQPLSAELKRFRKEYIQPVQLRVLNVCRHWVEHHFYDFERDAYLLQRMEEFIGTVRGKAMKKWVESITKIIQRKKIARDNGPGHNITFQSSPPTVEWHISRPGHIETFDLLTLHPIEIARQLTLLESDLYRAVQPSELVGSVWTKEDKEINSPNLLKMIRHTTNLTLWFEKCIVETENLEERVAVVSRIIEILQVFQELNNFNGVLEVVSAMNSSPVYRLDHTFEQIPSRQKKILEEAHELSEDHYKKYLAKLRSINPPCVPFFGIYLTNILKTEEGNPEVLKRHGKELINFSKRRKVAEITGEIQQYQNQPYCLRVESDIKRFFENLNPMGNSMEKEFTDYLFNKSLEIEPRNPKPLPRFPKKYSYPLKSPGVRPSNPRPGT

[2] = target: T2, hK-RasG12C - hSOS1 interaction (Homo sapiens, UniProt Q07889); experiment: Biochemical Assay 1: hK-RasG12C interaction assay with hSOS1 (HTRF); type: binding; details: for IC50: values expressed as IC50
T2 construct: hSOS1 (amino acid 564-1049); made in house; host or cells: E. coli BL21 (DE3)
T2 sequence (Q07889 with tags, fused parts or gaps): T1 sequence (Q07889 with tags, fused parts or gaps)
How it was run: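 HTRF signal between GST-hK-RasG12C (10 nM working solution, anti-GST-Eu) and His-hSOS1 (20 nM working solution, anti-6His-XL665) was read in HEPES pH 7.4 buffer with 10 mM EDTA, 1 mM DTT and 100 mM KF at 20 °C.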

Row | SMILES | IC50 [1] [nM] | IC50 [2] [nM] | inhibition at 20 µM ([2]; read-out: Assay 1 (hKRAS, hSOS Interaction) activity (expressed as IC50, or as % inhibition at 20 μM)) [%]
1 | Cc1nc(NC(C)c2ccc(-c3ccccc3CN(C)C)s2)c2cc(Oc3cccc(O)c3)ncc2n1 (stereo not shown) [Example 52, 3-[(4-{[1-(5-{2-[(dimethylamino)methyl]phenyl}thiophen-2-yl)ethyl]amino}-2-methylpyrido[3,4-d]pyrimidin-6-yl)oxy]phenol] | 856 | 202 | 
2 | Cc1nc(NC(C)c2ccc(-c3ccccc3CN(C)C)s2)c2cc(NC3CCOCC3)ncc2n1 (stereo not shown) [Example 53, N4-[1-(5-{2-[(dimethylamino)methyl]phenyl}-2-thienyl)ethyl]-2-methyl-N6-(tetrahydro-2H-pyran-4-yl)pyrido[3,4-d]pyrimidine-4,6-diamine] | 223 | 54.7 | 
3 | Cc1nc(NC(C)c2ccc(-c3ccccc3CN(C)C)s2)c2cc(NCCn3cccn3)ncc2n1 (stereo not shown) [Example 54, N4-[1-(5-{2-[(dimethylamino)methyl]phenyl}-2-thienyl)ethyl]-2-methyl-N6-[2-(1H-pyrazol-1-yl)ethyl]pyrido[3,4-d]pyrimidine-4,6-diamine] | 161 | 49.6 | 
4 | Cc1nc(NC(C)c2ccc(-c3ccccc3CN(C)C)s2)c2cc(NCCn3ccnc3)ncc2n1 (stereo not shown) [Example 56, N4-[1-(5-{2-[(dimethylamino)methyl]phenyl}-2-thienyl)ethyl]-N6-[2-(1H-imidazol-1-yl)ethyl]-2-methylpyrido[3,4-d]pyrimidine-4,6-diamine] | 93.9 | 39.4 | 
5 | COc1cc2c(N[C@H](C)c3cccc(Br)c3)nc(C)nc2cn1 [Example 57, N-[(1R)-1-(3-bromophenyl)ethyl]-6-methoxy-2-methylpyrido[3,4-d]pyrimidin-4-amine] | 1230 | 1970 | 
6 | Cc1nc(NC(C)c2ccc(-c3ccccc3CN(C)C)s2)c2cc(Oc3cccc(C4=NCCN4C)c3)ncc2n1 (stereo not shown) [Example 58, N-[1-(5-{2-[(dimethylamino)methyl]phenyl}thiophen-2-yl)ethyl]-2-methyl-6-[3-(1-methyl-4,5-dihydro-1H-imidazol-2-yl)phenoxy]pyrido[3,4-d]pyrimidin-4-amine] | 141 | 117 | 
7 | CSc1cc2c(NC(C)c3ccc(-c4ccccc4CN(C)C)s3)nc(C)nc2cn1 (stereo not shown) [Example 59, N-[1-(5-{2-[(dimethylamino)methyl]phenyl}thiophen-2-yl)ethyl]-2-methyl-6-(methylsulfanyl)pyrido[3,4-d]pyrimidin-4-amine] | 67.9 | 66.2 | 
8 | CC(=O)NCCOc1cc2c(N[C@H](C)c3cccc(Br)c3)nc(C)nc2cn1 [Example 62, N-{2-[(4-{[(1R)-1-(3-bromophenyl)ethyl]amino}-2-methylpyrido[3,4-d]pyrimidin-6-yl)oxy]ethyl}acetamide] | 443 | 291 | 
9 | CCOc1cc2c(NC(C)c3ccc(-c4ccccc4CN(C)C)s3)nc(C)nc2cn1 (stereo not shown) [Example 63, N-[1-(5-{2-[(dimethylamino)methyl]phenyl}thiophen-2-yl)ethyl]-6-ethoxy-2-methylpyrido[3,4-d]pyrimidin-4-amine] | 28 | 43.6 | 
10 | COc1cc2c(NC(C)c3ccc(-c4ccccc4CN(C)C)s3)nc(C)nc2cn1 (stereo not shown) [Example 64, N-[1-(5-{2-[(dimethylamino)methyl]phenyl}thiophen-2-yl)ethyl]-6-methoxy-2-methylpyrido[3,4-d]pyrimidin-4-amine] | 62.6 | 59.5 | 
11 | Cc1nc(NC(C)c2ccc(-c3ccccc3CN(C)C)s2)c2cc(OC3CCS(=O)(=O)CC3)ncc2n1 (stereo not shown) [Example 67, N-[1-(5-{2-[(dimethylamino)methyl]phenyl}thiophen-2-yl)ethyl]-6-[(1,1-dioxidotetrahydro-2H-thiopyran-4-yl)oxy]-2-methylpyrido[3,4-d]pyrimidin-4-amine] | 26.6 | 42 | 
12 | Cc1nc(NC(C)c2ccc(-c3ccccc3CO)s2)c2cc(F)ncc2n1 (stereo not shown) [Example 68, [2-(5-{1-[(6-fluoro-2-methylpyrido[3,4-d]pyrimidin-4-yl)amino]ethyl}thiophen-2-yl)phenyl]methanol] | > 20000 |  | 43.8
13 | Cc1nc(N[C@H](C)c2cccc(Br)c2)c2cc(OCCCN(C)C)ncc2n1 [Example 70, N-[(1R)-1-(3-bromophenyl)ethyl]-6-[3-(dimethylamino)propoxy]-2-methylpyrido[3,4-d]pyrimidin-4-amine] | 951 | 409 | 
14 | Cc1nc(NC(C)c2ccc(-c3ccccc3CN(C)C)s2)c2cc(N3CCC3)ncc2n1 (stereo not shown) [Example 71, 6-(azetidin-1-yl)-N-[1-(5-{2-[(dimethylamino)methyl]phenyl}thiophen-2-yl)ethyl]-2-methylpyrido[3,4-d]pyrimidin-4-amine] | 55.5 | 51.1 | 
15 | Cc1nc(NC(C)c2ccc(-c3ccccc3CN(C)C)s2)c2cc(OCCCN(C)C)ncc2n1 (stereo not shown) [Example 72, N-[1-(5-{2-[(dimethylamino)methyl]phenyl}thiophen-2-yl)ethyl]-6-[3-(dimethylamino)propoxy]-2-methylpyrido[3,4-d]pyrimidin-4-amine] | 42.1 | 34.2 | 
16 | Cc1nc(NC(C)c2ccc(-c3ccccc3CN(C)C)s2)c2cc(OCC3CC3)ncc2n1 (stereo not shown) [Example 73, 6-(cyclopropylmethoxy)-N-[1-(5-{2-[(dimethylamino)methyl]phenyl}thiophen-2-yl)ethyl]-2-methylpyrido[3,4-d]pyrimidin-4-amine] | 129 | 95 | 
17 | Cc1nc(NC(C)c2ccc(-c3ccccc3CN(C)C)s2)c2cc(OCCO)ncc2n1 (stereo not shown) [Example 74, 2-[(4-{[1-(5-{2-[(dimethylamino)methyl]phenyl}thiophen-2-yl)ethyl]amino}-2-methylpyrido[3,4-d]pyrimidin-6-yl)oxy]ethanol] | 92.8 | 55.2 | 
18 | Cc1nc(N[C@H](C)c2cccc(Br)c2)c2cc(OCC3CC3)ncc2n1 [Example 75, N-[(1R)-1-(3-bromophenyl)ethyl]-6-(cyclopropylmethoxy)-2-methylpyrido[3,4-d]pyrimidin-4-amine] | 3190 | 4180 | 
19 | Cc1nc(NC(C)c2ccc(-c3ccccc3CN(C)C)s2)c2cc(OCCCO)ncc2n1 (stereo not shown) [Example 76, 3-[(4-{[1-(5-{2-[(dimethylamino)methyl]phenyl}thiophen-2-yl)ethyl]amino}-2-methylpyrido[3,4-d]pyrimidin-6-yl)oxy]propan-1-ol] | 49.9 | 45.2 | 
20 | Cc1nc(NC(C)c2ccc(-c3ccccc3CN(C)C)s2)c2cc(OC3CCS(=N)(=O)CC3)ncc2n1 (stereo not shown) [Example 77, N-[1-(5-{2-[(dimethylamino)methyl]phenyl}-2-thienyl)ethyl]-6-[(1-imino-1-oxidohexahydro-1lambda4-thiopyran-4-yl)oxy]-2-methylpyrido[3,4-d]pyrimidin-4-amine] | 58.8 | 49.8 | 
21 | Cc1nc(N[C@H](C)c2cccc(Br)c2)c2cc(OCCN(C)C)ncc2n1 [Example 78, N-[(1R)-1-(3-bromophenyl)ethyl]-6-[2-(dimethylamino)ethoxy]-2-methylpyrido[3,4-d]pyrimidin-4-amine] | 1040 | 1280 | 
22 | Cc1nc(N[C@H](C)c2cccc(Br)c2)c2cc(NCCS(C)(=O)=O)ncc2n1 [Example 83] | 1340 | 575 | 
23 | Cc1nc(N[C@H](C)c2cccc(Br)c2)c2cc(NCCn3ccnc3)ncc2n1 [Example 84, N4-[(1R)-1-(3-bromophenyl)ethyl]-N6-[2-(1H-imidazol-1-yl)ethyl]-2-methylpyrido[3,4-d]pyrimidine-4,6-diamine] | 1030 | 513 | 
24 | Cc1nc(NC(C)c2ccc(-c3ccccc3CN(C)C)s2)c2cc(NCC3CCNC(=O)C3)ncc2n1 (stereo not shown) [Example 86, 4-{[(4-{[1-(5-{2-[(dimethylamino)methyl]phenyl}thiophen-2-yl)ethyl]amino}-2-methylpyrido[3,4-d]pyrimidin-6-yl)amino]methyl}piperidin-2-one] | 127 | 119 | 
25 | Cc1nc(NC(C)c2ccc(-c3ccccc3CN(C)C)s2)c2cc(N3CC(NC(=O)CCCn4c(-c5ccccn5)nc(C)c4C)C3)ncc2n1 (stereo not shown) [Example 87, N-[1-(4-{[1-(5-{2-[(dimethylamino)methyl]phenyl}thiophen-2-yl)ethyl]amino}-2-methylpyrido[3,4-d]pyrimidin-6-yl)azetidin-3-yl]-4-[4,5-dimethyl-2-(pyridin-2-yl)-1H-imidazol-1-yl]butanamide] | 240 | 71 | 
26 | Cc1nc(NC(C)c2ccc(-c3ccccc3CN(C)C)s2)c2cc(N3CC(NC(=O)c4ccccc4)C3)ncc2n1 (stereo not shown) [Example 88, N-[1-(4-{[1-(5-{2-[(dimethylamino)methyl]phenyl}thiophen-2-yl)ethyl]amino}-2-methylpyrido[3,4-d]pyrimidin-6-yl)azetidin-3-yl]benzamide] | 161 | 59.5 | 
